Results: patent US8304448B2, “Method for the treatment of metabolic disorder containing benzazole derivatives as an active ingredient” (Korea Research Institute of Bioscience and Biotechnology, priority 2006, dated 2012)

Legend:
[1] = system: ICR mice fed a high-fat diet; experiment: In vivo assay for anti-obesity activity in mice fed a high-fat diet; parameters: species or system mouse
Description: Also, the derivatives of Chemical Formula 1 were tested for resistance to obesity by iterative oral administration at a dose of 10 mg/kg into ICR male mice (refer to Example 3). […] When they were administered, the levels of total triglycerides, total cholesterols, and low density lipoprotein (LDL)-cholesterol in the blood recovered to almost normal levels, with a significant increase observed in the level of high density lipoprotein (HDL)-cholesterol in the blood (refer to Tables 6 and 7 and FIGS. 3 and 4).
In order to verify the anti-obesity activity of the benzaldehyde derivatives of Chemical Formula 1 in accordance with the present invention, Compounds 22 and 31 were administered repetitively into rodents as follows.
The experimental animals were 6 week old ICR mice which were purchased from Japan SLC, Inc. via Central Lab. Animal Inc. Korea. They were acclimated to a new environment for one week before use, and fed with a foodstuff commercially available from Deyts, U.S.A. They were bred in an animal lab set at a temperature of 23±3° C. and RH 50±10% under light of 150˜300 Lux for a period of 12 hours (6 a.m.˜6 p.m.) with ventilation 10-20 times/hour. All of the 12 mice used were male, and were organized into two groups of 6. The test group was orally administered once a day at 4 p.m. with 10 mg/kg of the compound (Chemical Formula 1) in the form of a solution in biological saline for 35 days while the control was administered with biological saline only. Xenical, a commercially available lipase inhibitor, was administered orally at a dose of 10 mg/kg once a day as a positive control drug.
The animals were measured for body weight every week and sacrificed on Day 35, after which blood from the heart was sampled. Abdominal fat, epididymal fat, retroperitoneal fat and the liver were excised and weighed. Blood samples were assayed for total triglyceride, total cholesterol, HDL-cholesterol and LDL-cholesterol using respective test kits, all commercially available from Asan Pharmaceutical Co. Ltd., Korea.
For evidence of anti-obesity activity, compounds 22 and 31 were orally administered at regular intervals at a dose of 10 mg/kg into ICR male mice for a predetermined period of time with the concurrent provision of conditional diets thereto. Anatomized abdomens of the animals are given in the photographs of FIG. 2.

[2] = system: Sprague-Dawley rats; experiment: Acute toxicity, oral administration for two weeks, rats; assay type: in vivo; settings: oral 100 and 250 mg/kg for two weeks
Description: (§1) An assay of the benzazole derivatives of Chemical Formula 1 in accordance with the present invention was performed for acute toxicity on mice (20±5 g, Central Lab. Animal Inc.) and rats (235±10 g, Central Lab. Animal Inc.).
(§2) For this, ICR mice and Sprague-Dawley rats were assigned to 4 groups of 10 and orally administered with Compound 22 in doses of 100 and 250 mg/kg for two weeks.

[3] = system: ICR mice; experiment: Acute toxicity, oral administration for two weeks, mice; assay type: in vivo; settings: oral 100 and 250 mg/kg for two weeks
Description: as §1, §2

[4] = Day 35, high-fat diet, 10 mg/kg oral, Mean ± SD
[5] = blood, Day 35, high-fat diet, 10 mg/kg oral, Mean ± SD

SMILES: O=C(NCc1ccco1)c1ccc2oc(COc3ccc(C45CC6CC(CC(C6)C4)C5)cc3)nc2c1 [Cpd. 22, 2-(4-adamantan-1-yl-phenoxymethyl)-benzoxazole-5-carboxylic acid (furan-2-ylmethyl)-amide]
- abdominal fat increment (FIG. 2) ([1]; 10 mg/kg, compared to groups fed only the high-fat diet, final day): significantly decreased
- (Tissue Weight/Body Weight) × 100 Abdominal Fat + Epididymal Fat [1, 4]: 3.97 ± 0.72
- (Tissue Weight/Body Weight) × 100 Liver [1, 4]: 4.66 ± 0.65
- (Tissue Weight/Body Weight) × 100 Retroperitoneal Fat [1, 4]: 1.24 ± 1.31
- (Tissue Weight/Body Weight) × 100 Total Fat [1, 4]: 5.24 ± 0.91
- HDL-Cholesterol [1, 5]: 21.66 ± 2.16 mg/dL
- LDL-Cholesterol [1, 5]: 37.57 ± 15.14 mg/dL
- Total Cholesterol [1, 5]: 68.89 ± 14.95 mg/dL
- Total Triglyceride [1, 5]: 48.33 ± 9.83 mg/dL
- inhibition of body weight gain ([1]; high-fat diet, 10 mg/kg oral once a day for 35 days): 68%
- Body Weight (g) (Mean ± SD) Week 0 ([1]; high-fat diet, 10 mg/kg oral once a day, Week 0): 26.30 ± 1.27 g
- Body Weight (g) (Mean ± SD) Week 1 ([1]; high-fat diet, 10 mg/kg oral once a day, Week 1): 34.75 ± 1.75 g
- Body Weight (g) (Mean ± SD) Week 2 ([1]; high-fat diet, 10 mg/kg oral once a day, Week 2): 37.94 ± 2.33 g
- Body Weight (g) (Mean ± SD) Week 3 ([1]; high-fat diet, 10 mg/kg oral once a day, Week 3): 40.34 ± 3.39 g
- Body Weight (g) (Mean ± SD) Week 4 ([1]; high-fat diet, 10 mg/kg oral once a day, Week 4): 42.48 ± 2.90 g
- Body Weight (g) (Mean ± SD) Week 5 ([1]; high-fat diet, 10 mg/kg oral once a day, Week 5): 43.90 ± 1.20 g
- apparent symptoms [2]: no apparent symptoms different from the control
- apparent symptoms [3]: no apparent symptoms different from the control
